Legend:
Assay in all cases: Cytotoxicity assay (MTS, 72 hours)
Colo357-FG = assay type: cell-based, human
Method: (§1) Tumor cell lines were maintained in DMEM with 10% fetal bovine serum (FBS), 100 microg/ml streptomycin, and 100 IU/ml penicillin in 5% CO2 at 37° C.
Colo357-FG and Colo357-L3: Colo357-FG, a fast-growing variant produced regional lymph node metastasis in 58% of nude mice after subcutaneous implantation and growth. It also produced hepatic metastasis in 64% and pulmonary metastasis in 43% of nude mice after intrasplenic implantation of tumor cells. See Vezeridis et al. (1990).
(§2) For the cytotoxicity assays, 1,500 tumor cells were plated into 96-well flat-bottom tissue culture plates in complete medium (see Tables 2 and 3). After 20 hours fresh media containing different concentrations of compounds disclosed herein added. Cell number was counted after 72 hours by using MTS assay (Promega CellTiter AQ Non-Radioactive Cell Proliferation Assay kit, Madison, Wis., USA) by measuring absorbance at 490 nm with a 96-well plate reader. Data are presented as IC50 values derived from relative inhibition of proliferation plus SD of eight measurements. The number of cells in the presence of DMSO was taken as 100%.

MDA-PATC-53 = assay type: cell-based
Method: as §1, §2

231-MB = assay type: cell-based; conditions: Table 3, Breast
Method: as §1, §2

231 = assay type: cell-based; conditions: Table 3, Breast
Method: as §1, §2

4T1 = assay type: cell-based
Method: as §1, §2

A375 = assay type: cell-based
Method: as §1, §2

BT-58 = assay type: cell-based; conditions: Table 3, Ependymoma
Method: as §1, §2

BT483 = assay type: cell-based
Method: as §1, §2

HH = assay type: cell-based; conditions: Table 3, CTCL
Method: as §1, §2

HuT78 = assay type: cell-based
Method: as §1, §2

LNZ-428 = assay type: cell-based; conditions: Table 3, GBM
Method: as §1, §2

MDA-PATC-108 = assay type: cell-based; conditions: Table 3, Panc
Method: as §1, §2

MIA-PaCa-2 = assay type: cell-based
Method: as §1, §2

Ovcar-5 = assay type: cell-based
Method: as §1, §2

PC3 = assay type: cell-based
Method: as §1, §2

SK-MEL-28 = assay type: cell-based
Method: as §1, §2

SU.86.86 = assay type: cell-based
Method: as §1, §2

U87MG = assay type: cell-based; conditions: Table 3, GBM
Method: as §1, §2

WM35 = assay type: cell-based
Method: as §1, §2

HD2 = assay type: cell-based; conditions: Table 3, Myeloma
Method: as §2, with “After” for “For the cytotoxicity assays, 1,500 tumor cells were plated into 96-well flat-bottom tissue culture plates in complete medium (see Tables 2 and 3). After”

WM793 = assay type: cell-based, human
Method: as §1
WM793 human melanoma tumor cell lines were used from different stages of progression and their biological and molecular analyses. See Satyamoorthy et al. (1997).
as §2

D423 enol = assay type: cell-based; conditions: Table 3, GBM
Method: as §1, §2

D423 = assay type: cell-based; conditions: Table 3, GBM
Method: as §1, §2

LN319 = assay type: cell-based; conditions: LN-319, Table 3, GBM
Method: as §1, §2

MDA-PATC-148 = assay type: cell-based; conditions: Table 3, Panc
Method: as §1, §2

MDA-PATC-153 = assay type: cell-based; conditions: Table 3, Panc
Method: as §1, §2

[1] = Homo sapiens, COLO 357/FG, 72 h, Table 2, Colo357-FG
[2] = MDA-PATC53, 72 h, Table 2, MDA-PATC-53

## CCN(CC)CCOc1ccc(C(CC)(CC)NC(=O)/C(C#N)=C/c2cccc(Cl)n2)cc1 [WP 1722, (E)-3-(6-chloropyridin-2-yl)-2-cyano-N-(3-(4-(2-(diethylamino)ethoxy)phenyl)pentan-3-yl)acrylamide]
Colo357-FG; Table 2, Colo357-FG
  IC50: 1200 nM
MDA-PATC-53; Table 2, MDA-PATC-53
  IC50: 1100 nM

## C[C@H](NC(=O)/C(C#N)=C/c1cccc(Br)n1)c1ccccc1 [WP1066, reference compound]
Colo357-FG; Table 2, Colo357-FG
  IC50: 2100 nM
Colo357-FG; Table 3, Panc
  IC50: 2000 nM
231-MB
  IC50: 1200 nM
231
  IC50: 4800 nM
4T1; Table 3, Breast
  IC50: 4400 nM
A375; Table 3, Melanoma
  IC50: 1500 nM
BT-58
  IC50: 1800 nM
BT483; Table 3, Breast
  IC50: 4200 nM
HH
  IC50: 2300 nM
HuT78; Table 3, CTCL
  IC50: 1900 nM
LNZ-428
  IC50: 1500 nM
MDA-PATC-108
  IC50: 2400 nM
MDA-PATC-53; Table 2, MDA-PATC-53
  IC50: 2400 nM
MDA-PATC-53; Table 3, Panc
  IC50: 2400 nM
MIA-PaCa-2; Table 3, Panc
  IC50: 1700 nM
Ovcar-5; Table 3, Ovarian
  IC50: 1700 nM
PC3; Table 3, Prostate
  IC50: 2300 nM
SK-MEL-28; Table 3, Melanoma
  IC50: 2000 nM
SU.86.86; Table 3, Panc
  IC50: 2500 nM
U87MG
  IC50: 1700 nM
WM35; Table 3, Melanoma
  IC50: 1300 nM
HD2
  IC50: 1700 nM
WM793; Table 3, Melanoma
  IC50: 2100 nM

## CCC(CC)(NC(=O)/C(C#N)=C/c1cccc(Cl)n1)c1ccc(OCCOCCN2CCOCC2)cc1 [WP 1723, (E)-3-(6-chloropyridin-2-yl)-2-cyano-N-(3-(4-(2-(2-morpholinoethoxy)ethoxy)phenyl)pentan-3-yl)acrylamide]
Colo357-FG; [1]
  IC50: 1200 nM
MDA-PATC-53; [2]
  IC50: 1400 nM

## CCC(CC)(NC(=O)/C(C#N)=C/c1cccc(Cl)n1)c1ccc(OCCN2CCOCC2)cc1 [WP 1721, (E)-3-(6-chloropyridin-2-yl)-2-cyano-N-(3-(4-(2-morpholinoethoxy)phenyl)pentan-3-yl)acrylamide]
Colo357-FG; [1]
  IC50: 1100 nM
MDA-PATC-53; [2]
  IC50: 1100 nM

## CCN(CC)CCOc1ccc(C(CC)(CC)NC(=O)/C(C#N)=C/c2cccc(Cl)n2)cc1 [WP 1794]
Colo357-FG; [1]
  IC50: 600 nM
MDA-PATC-53; [2]
  IC50: 900 nM

## CCC(CC)(NC(=O)/C(C#N)=C/c1cccc(Cl)n1)c1ccc(OCCOCCN2CCN(C)CC2)cc1 [WP1732]
Colo357-FG; Homo sapiens, COLO 357/FG, 72 h, Table 3, Panc
  IC50: 2600 nM
231-MB
  IC50: 1500 nM
231
  IC50: 2800 nM
4T1; Mus musculus, 4T1, Table 3, Breast
  IC50: 4500 nM
A375; Homo sapiens, A-375, Table 3, Melanoma
  IC50: 1100 nM
BT-58
  IC50: 1800 nM
BT483; Homo sapiens, BT-483, Table 3, Breast
  IC50: 2300 nM
D423 enol
  IC50: 2500 nM
D423
  IC50: 1400 nM
HH; Homo sapiens, HH
  IC50: 3200 nM
HuT78; Homo sapiens, HuT78, Table 3, CTCL
  IC50: 2900 nM
LN319
  IC50: 2800 nM
LNZ-428
  IC50: 2300 nM
MDA-PATC-108
  IC50: 1600 nM
MDA-PATC-148
  IC50: 1900 nM
MDA-PATC-153
  IC50: 2600 nM
MDA-PATC-53; MDA-PATC53, 72 h, Table 3, Panc
  IC50: 1800 nM
MIA-PaCa-2; Homo sapiens, MIA PaCa-2, Table 3, Panc
  IC50: 1600 nM
Ovcar-5; Homo sapiens, OVCAR-5, Table 3, Ovarian
  IC50: 1700 nM
PC3; Homo sapiens, PC-3, Table 3, Prostate
  IC50: 1400 nM
SK-MEL-28; Homo sapiens, SK-MEL-28, Table 3, Melanoma
  IC50: 1800 nM
SU.86.86; Homo sapiens, SU.86.86, Table 3, Panc
  IC50: 1500 nM
U87MG; Homo sapiens, U-87 MG
  IC50: 1800 nM
WM35; WM35, Table 3, Melanoma
  IC50: 2300 nM
HD2
  IC50: 3800 nM
WM793; Homo sapiens, WM793, Table 3, Melanoma
  IC50: 1800 nM

## CCC(CC)(NC(=O)/C(C#N)=C/c1cccc(Cl)n1)c1ccc(OCCOCCN2CCN(C)CC2)cc1 [WP 1731, (E)-3-(6-chloropyridin-2-yl)-2-cyano-N-(3-(4-(2-(2-(4-methylpiperazin-1-yl)ethoxy)ethoxy)phenyl)pentan-3-yl)acrylamide]
Colo357-FG; [1]
  IC50: 1500 nM
MDA-PATC-53; [2]
  IC50: 1800 nM

## CCC(CC)(NC(=O)/C(C#N)=C/c1cccc(Cl)n1)c1ccc(OCCN2CCOCC2)cc1 [WP 1793]
Colo357-FG; Table 2, Colo357-FG
  IC50: 800 nM
MDA-PATC-53; Table 2, MDA-PATC-53
  IC50: 1000 nM

## CCN(CC)CCOc1ccc(C(CC)(CC)NC(=O)/C(C#N)=C/c2ccccn2)cc1 [WP 1727, (E)-2-cyano-N-(3-(4-(2-(diethylamino)ethoxy)phenyl)pentan-3-yl)-3-(pyridin-2-yl)acrylamide]
Colo357-FG; [1]
  IC50: 2200 nM
MDA-PATC-53; [2]
  IC50: 3000 nM

## CCCC(CCC)(NC(=O)/C(C#N)=C/c1cccc(Cl)n1)c1ccc(OCCN2CCOCC2)cc1 [WP 1733, (E)-3-(6-chloropyridin-2-yl)-2-cyano-N-(4-(4-(2-morpholinoethoxy)phenyl)heptan-4-yl)acrylamide]
Colo357-FG; [1]
  IC50: 950 nM
MDA-PATC-53; [2]
  IC50: 1100 nM

## CCC(CC)(NC(=O)/C(C#N)=C/c1ccccn1)c1ccc(OCCOCCN2CCOCC2)cc1 [WP 1724, (E)-2-cyano-N-(3-(4-(2-(2-morpholinoethoxy)ethoxy)phenyl)pentan-3-yl)-3-(pyridin-2-yl)acrylamide]
Colo357-FG; [1]
  IC50: 2800 nM
MDA-PATC-53; [2]
  IC50: 3500 nM

## CCCC(CCC)(NC(=O)/C(C#N)=C/c1cccc(Cl)n1)c1ccc(OCCN(CC)CC)cc1 [WP 1734, (E)-3-(6-chloropyridin-2-yl)-2-cyano-N-(4-(4-(2-(diethylamino)ethoxy)phenyl)heptan-4-yl)acrylamide]
Colo357-FG; [1]
  IC50: 1500 nM
MDA-PATC-53; [2]
  IC50: 1600 nM
